Molecules are shown by their SMILES.

The nature of this data set: in vitro. The note with it: human, hela cells, % viability.
On to `Cc1cc(C(=O)NCCn2ccnc2C)c2cccc(Cl)c2n1` [CBK282460], for which the viability at 28.5 h, 10 µM amounted to 95.6%.
The same measure for `CNC(=O)c1ccc(-n2ccnc2)c(-n2cccc2)c1` [CBK282461]: 80.8%; for `CCCc1cc(CNC(=O)c2cnn(-c3ccc(F)cc3)c2)on1` [CBK282463]: 86.6%; for `CCCc1cc(C(=O)NC2(CN3CCCC3)CCCCC2)[nH]n1` [CBK282464]: 98.1%.
The same measure for `CCCc1cc(C(=O)NC2CCN(Cc3cccc(F)c3)CC2)[nH]n1` [CBK282465]: 100%; for `CCCN1CCC(CNC(=O)c2cnn(-c3ccc(F)cc3)c2)CC1` [CBK282466]: 112%; for `CCCc1cc(C(=O)NC(C)(C)CN2CCCC(C)C2)[nH]n1` (stereo not drawn) [CBK282467]: 89.1%.
For `Cc1ccccc1C1(O)CCN(CC(O)c2ccc(F)cc2)CC1` (stereo not drawn) [CBK282471], the viability at 28.5 h, 10 µM came to 87.7%.
Take `Cc1nc2ccc(C(=O)NCC3CCCN(C(C)C)C3)cc2[nH]1` (stereo not drawn) [CBK282475]: the viability at 28.5 h, 10 µM turned out to be 90%.
Next, `Cc1nc2ccc(C(=O)NCCCc3ccccn3)cc2s1` [CBK282478]: 88.2%; `Cc1ccc(C2(CN3CCN(CC4CCOC4)CC3)CC2)cc1` (stereo not drawn) [CBK282479]: 86.1%.
Next, `Cc1ccc(CN(CCCN(C)C)Cc2nccn2C)o1` [CBK282481]: 105%; `C=C(C)Cn1nc(C)c(CN(C)CCN2CCCCC2)c1C` [CBK282483]: 88.7%.
Next, `Cn1cc(CCCC(=O)NC2CCCOC2)c2ccccc21` (stereo not drawn) [CBK282486]: 81.8%; `CC1CCN(CC(O)c2ccc3c(c2)CCCN3C(=O)C2CC2)CC1` (stereo not drawn) [CBK282488]: 96.9%.
Take `OC(CN1CCC(O)(c2ccc(F)cc2)CC1)c1ccccc1` (stereo not drawn) [CBK282489]: the viability at 28.5 h, 10 µM was 104%.
For `OC(CN1CCC(O)(c2ccccc2F)CC1)c1ccccc1` (stereo not drawn) [CBK282490], the viability at 28.5 h, 10 µM came to 107%.
The same measure for `Cc1ccccc1C1(O)CCN(CC(O)c2ccccc2)CC1` (stereo not drawn) [CBK282491]: 83.7%; for `OC(CN1CCC(O)(c2ccccc2F)CC1)c1ccc(F)cc1` (stereo not drawn) [CBK282492]: 87.2%; for `COc1cccc(CN(Cc2ccco2)Cc2cnc(C)n2C)c1` [CBK282494]: 93.6%.
The same measure for `COc1cccc(CN(Cc2ncc[nH]2)Cc2ccco2)c1` [CBK282496]: 98.7%; for `O=C(NCCC(c1ccccc1)c1ccco1)C1CCCN1` (stereo not drawn) [CBK282499]: 85%; for `CCc1c(C(=O)NCc2cc(C3CC3)[nH]n2)[nH]c2ccc(F)cc12` [CBK282501]: 76.3%.
In the case of `CC(=O)c1cn(CCC(=O)NC2CCCN(C)C2)c2ccccc12` (stereo not drawn) [CBK282503], the viability at 28.5 h, 10 µM was 81.3%.
Next, `Cc1cccc(C2(O)CCN(CC(O)c3ccc(F)cc3)CC2)c1` (stereo not drawn) [CBK282504]: 96.6%; `CCc1[nH]c2ccc(C(=O)NCCn3ccnc3C)cc2c1C` [CBK282505]: 96.4%; `Cc1cccc(C2(O)CCN(C(=O)CCCc3ccncc3)CC2)c1` [CBK282506]: 111%.
Next, `Cn1c(CCC(=O)Nc2c[nH]c3ccccc23)nc2ccccc21` [CBK282507]: 85.9%; `CCOC(=O)C(C)NC(=O)c1ccc2nc(C)sc2c1` (stereo not drawn) [CBK282508]: 85.5%.
As for `Cc1c(C(=O)NCC[S+](C)[O-])oc2c(C)cccc12` (stereo not drawn) [CBK282511], the viability at 28.5 h, 10 µM amounted to 88.8%.
On to `Cc1nn(-c2cccc(C(=O)NC3CCCOC3)c2)c(C)c1Cl` (stereo not drawn) [CBK282512], for which the viability at 28.5 h, 10 µM was 83.6%.
Next, `COc1ccccc1CCCNC(=O)c1csc(C(C)=O)c1` [CBK282513]: 98.8%.
As for `CC(=O)c1cc(C(=O)NC(c2ccccc2)c2cccnc2)cs1` (stereo not drawn) [CBK282514], the viability at 28.5 h, 10 µM amounted to 125%.
With `COc1ccccc1CC(C)NC(=O)c1csc(C(C)=O)c1` (stereo not drawn) [CBK282517], the viability at 28.5 h, 10 µM was 114%.
The same measure for `Cc1ccn(CCNC(=O)c2ccc3c(C)c(C)[nH]c3c2)n1` [CBK282519]: 101%; for `CCc1nc2cc(NC(=O)c3csc(C(C)=O)c3)ccc2n1C` [CBK282522]: 105%; for `Cc1ccc(C)c2c(C)c(C(=O)N3CCC(O)C(C)C3)[nH]c12` (stereo not drawn) [CBK282527]: 97.4%.
Next, `CCOc1ccc2[nH]c(C(=O)NC3CCCOC3)c(C)c2c1` (stereo not drawn) [CBK282529]: 113%.
`CCOc1ccc2[nH]c(C(=O)NC3CCCN(C)C3)c(C)c2c1` (stereo not drawn) [CBK282530]: the viability at 28.5 h, 10 µM stood at 109%.
The same measure for `CC(=O)c1cc(C(=O)N2CCC(O)(c3cccc(C)c3)CC2)cs1` [CBK282531]: 92.8%; for `Cc1n[nH]c(C)c1CNC(=O)c1[nH]c2c(Cl)cccc2c1C` [CBK282534]: 96%.
Next, `CC(C)c1cc(C(=O)NC(c2ccccc2)c2ccnn2C)n(C)n1` (stereo not drawn) [CBK282535]: 102%; `CN(Cc1cccc2ncccc12)C(=O)c1cc(C2CC2)nn1C` [CBK282537]: 108%.
Next, `CC1(C)CC(N(Cc2ccc(F)cc2)Cc2c[nH]cn2)CC(C)(C)N1` [CBK282540]: 102%; `COc1ccc2cc(C(=O)NC3CCCN(C)C3)n(C)c2c1` (stereo not drawn) [CBK282541]: 85.1%.
In the case of `CCCN1CCC(CNC(=O)c2cc3ccc(OC)cc3n2C)CC1` [CBK282542], the viability at 28.5 h, 10 µM was found to be 99.9%.
Take `O=C1CN(C(=O)Cn2c(-c3cccs3)cc3cccnc32)CCN1` [CBK282543]: the viability at 28.5 h, 10 µM is 100%.
Next, `COc1ccc2cc(C(=O)NCCn3ccnc3C)n(C)c2c1` [CBK282544]: 94.1%.
Next, `COCC(=O)NC1CCN(CC2(c3cccc(F)c3)CCCC2)CC1` [CBK282546]: 108%; `CN1CCCC(NC(=O)Cn2nc(C(F)(F)F)c3c2CCCC3)C1` (stereo not drawn) [CBK282548]: 101%.
The same measure for `Cc1[nH]c2c(C(=O)NCCCC3CCOC3)cccc2c1C` (stereo not drawn) [CBK282551]: 84.1%; for `O=C(Cn1c(-c2cccs2)cc2cccnc21)NC1CC1` [CBK282552]: 101%; for `O=C(Cn1c(-c2cccs2)cc2cccnc21)NCC1CC1` [CBK282553]: 106%.
On to `CN(C)CCNC(=O)Cn1c(-c2cccs2)cc2cccnc21` [CBK282555], for which the viability at 28.5 h, 10 µM was determined as 92.6%.
The same measure for `COCCCNC(=O)Cn1c(-c2cccs2)cc2cccnc21` [CBK282559]: 87.2%.
Next, `Cc1nn(C(C)C)c(C)c1CN1CCN(C2CCCCC2)C(=O)C1` [CBK282562]: 109%; `C[S+]([O-])CCNC(=O)c1cc(-c2cccs2)no1` (stereo not drawn) [CBK282563]: 84.5%.
Next, `CN1CCC(CNC(=O)Cn2ccc3ccc(F)cc32)(N(C)C)CC1` [CBK282569]: 107%.
With `O=C(Cn1ccc2ccc(F)cc21)Nc1cccc(-n2cnnc2)c1` [CBK282570], the viability at 28.5 h, 10 µM stood at 111%.
The same measure for `CC(=O)c1csc(NC(=O)Cn2ccc3ccc(F)cc32)n1` [CBK282572]: 90.5%.
The same measure for `CCCN1CCC(CNC(=O)Cn2ccc3ccc(F)cc32)CC1` [CBK282573]: 88%.
Next, `C=CCC1(CC=C)CCN1C(=O)c1cc(-c2c(C)nn(C)c2C)n[nH]1` [CBK282575]: 82.2%; `Cc1cc2occ(CC(=O)NCc3cc(C4CC4)[nH]n3)c2cc1C` [CBK282576]: 87.1%; `CC1(C)CC(N(Cc2c[nH]cn2)Cc2ccccc2F)CC(C)(C)N1` [CBK282579]: 92.9%.
Consider `C=Cn1cc(CN2CCC(O)(c3ccccc3C)CC2)c(C)n1` [CBK282580], for which the viability at 28.5 h, 10 µM was 93.7%.
The same measure for `C=CCn1cc(CN2CCC(O)(c3ccccc3C)CC2)c(C)n1` [CBK282581]: 86.5%; for `C=Cn1ncc(CN2CCC(O)(c3ccccc3C)CC2)c1C` [CBK282582]: 88.6%; for `O=C(O)CCn1c(-c2ccc(F)cc2)cc2cccnc21` [CBK282583]: 84.4%.
Next, `CCc1cccc2c(CC(=O)NC3CCCOC3)c(C)[nH]c12` (stereo not drawn) [CBK282584]: 105%; `C=CCOc1ccc(Cl)cc1C(=O)NCc1c(C)n[nH]c1C` [CBK282587]: 82.6%.
The same measure for `CC(=O)NC1CCN(CC2(c3ccccc3F)CCCC2)CC1` [CBK282591]: 86.7%; for `C=Cn1cc(CN2CCCN(Cc3cccc(F)c3)CC2)c(C)n1` [CBK282594]: 98.7%.
For the compound `COc1ccccc1CC(C)NC(=O)c1ccnn1C(C)C` (stereo not drawn) [CBK282595], the viability at 28.5 h, 10 µM was determined as 86.9%.
With `CCOc1cc(CCC(=O)NC(C)c2ccccc2)on1` (stereo not drawn) [CBK282597], the viability at 28.5 h, 10 µM was determined as 82.3%.
The same measure for `Fc1ccc([C@@H]2COC[C@H]2NCc2ccsc2)cc1` [CBK282598]: 100%.
Regarding `Cc1oc2ccc(O)cc2c1C(=O)NC(C)(C)CN1CCCC(C)C1` (stereo not drawn) [CBK282601], the viability at 28.5 h, 10 µM is 105%.
For the compound `CCN1CCCC1CN(Cc1cccs1)CC1CCOC1` (stereo not drawn) [CBK282602], the viability at 28.5 h, 10 µM came out at 97.1%.
As to `CCN1CCCC1CN(Cc1cccs1)Cc1cnc(C)n1C` (stereo not drawn) [CBK282603], the viability at 28.5 h, 10 µM is 91.5%.
The same measure for `c1ccc(CN2CCC3(CC2)CNCc2ccccc2O3)cc1` [CBK282605]: 88.4%.
Next, `Cc1ccc(C2(O)CCN(CCNC(=O)C3CCCC3)CC2)cc1` [CBK282606]: 93.1%; `Cc1ccc(C2(O)CCN(CCNC(=O)C3CC3C)CC2)cc1` (stereo not drawn) [CBK282607]: 83.9%; `Cc1cc2occ(CC(=O)NC3CCCN(C)C3)c2cc1C` (stereo not drawn) [CBK282611]: 93.1%.
Next, `Cc1nc(C)n(CCNC(=O)Cc2coc3cc(C)c(C)cc23)n1` [CBK282613]: 90.7%; `O=C(NCCCc1ccccn1)c1ccnc2ccc(Cl)cc12` [CBK282618]: 92.4%.
